According to patent US6410587B1, “Compounds and therapies for the prevention of vascular and non-vascular pathologies” (NeoRx Corporation, priority 1997, dated 2002):

Assays:
[1] = test system: smooth muscle α-actin (SM-α-actin); assay: SM-alpha-actin in vessel wall (quantitative immunofluorescence); assay type: in vivo, mouse; conditions: 87 days treatment
Method: (§1) SM-α-actin and osteopontin were measured by quantitative immunofluorescence microscopy using specific primary antibodies A-6125 (Sigma) and MBP111Bio (NIH Developmental Studies Hybridoma Bank), respectively.

[2] = Simvastatin for 16 weeks in patients with high cholesterol; assay type: in vivo, human; conditions: six time points
Method: Twenty six patients with high cholesterol were administered simnvastatin for 16 weeks. Blood was collected at six times points during the 16 weeks and analyzed for TGF-beta levels.

[3] = test system: apoE knockout mice; assay: Lipid lesion development in aortic sinus of apoE knockout mice (Oil Red O)
Method: To determine the efficacy of combination therapy, and to provide evidence for synergism between aspirin and fish oil, 8-week-old female apoE knockout mice were fed aspirin or fish oil, or both, to assess the cardioprotective effects of modulating different components of the TGF-beta pathway.
Group A mice (n=10) were sacrificed at day 0. Group B mice (n=10) were fed normal chow. […] Group D mice (n=10) were fed chow containing 33 mg/kg/day fish oil (200 μg Pulse cod liver oil/g food, Seven Seas Ltd., which contains 0.9 g eicosapentaenoic acid (EPA), and 0.3 g docosahexaenoic acid (DHA)) and 3 mg/kg/day aspirin dissolved in water. Group E mice (n=10) were fed chow containing 33 mg/kg/day fish oil. Group F mice (n=10) were fed chow containing Zocor (simvastatin; Zocor tablets, Merck, Sharpe & Dohme) at 400 μg/kg/day (2 μg/g food).
Groups B-F were fed these regimens for 87 days. All mice were weighed daily for the first week and weekly thereafter. Food and water consumption over a 24 hour period were measured daily for the first 7 days and weekly thereafter.
After 87 days, mice in groups B-F were fasted overnight and then sacrificed. Serum, heart, lungs and aorta samples were collected at the time of sacrifice. The heart, lungs and aorta were removed from each mouse and rinsed in PBS, dabbed dry on tissue and embedded in Cryo-M-bed embedding medium (Bright Instruments, Huntington, U.K.) before snap freezing in liquid nitrogen. Frozen sections (4 μm thickness) of the aortic sinus region were prepared from the heart/lung/aorta blocks according to the sectioning strategy of Paigen et al. (Arteriosclerosis, 10, 316 (1990)). Sections on 5% gelatin-coated slides were stained for neutral lipid by the Oil Red O technique and counter-stained with fast green (Grainger et al., Nature Med., 1, 1067 (1995)).
The development of lipid-filled vascular lesions was determined by the quantitation of oil red O staining for neutral lipid deposited in the aortic sinus region. The area of lipid accumulation was measured using a calibrated microscope eye-piece, such that lipid droplets<50 μm^2 were ignored and contiguous regions of lipid staining>500 μm in area were classified as lesions.

[4] = test system: TGF-beta; assay: TGF-beta in vessel wall of apoE knockout mice (quantitative immunofluorescence); assay type: in vivo, mouse; conditions: 87 days treatment
Method: No. 08/478,936, filed Jun. 7, 1995, which is incorporated by reference herein. […] Sigma) and fixed in ice-cold acetone for 90 seconds, air-dried and stored at -20° C. until assayed. […] R&D Systems), see Mosedale et al., Histochem. Cytochem., 44, 1043 (1996), the disclosure of which is incorporated by reference herein. Active TGF-beta wag measured by quantitative immunofluorescence microscopy using the recombinant extracellular domain of the type II TGF-beta receptor […]) labeled with fluorescein.

[5] = Serum lipid and lipoprotein profile of apoE knockout mice; assay type: in vivo, mouse
Method: The effect of each treatment on the lipid profile of each group of mice was determined by measuring the cholesterol and triglyceride. Blood from a terminal bleed was collected in a polypropylene tube, allowed to clot at room temperature for 2 hours and then spun (1,000×g; 5 minutes). The serum supernatant was aliquoted and stored at −20° C. until assayed. Total cholesterol and total triglycerides were determined for each mouse using the cholesterol oxidase and glycerol kinase UV end-point enzymatic methods respectively (Sigma Diagnostics).

[6] = test system: osteopontin; assay: Osteopontin in vessel wall (quantitative immunofluorescence); assay type: in vivo, mouse; conditions: 87 days treatment
Method: as §1

[7] = single measurement on pooled blood of the group

CCC(C)(C)C(=O)O[C@H]1C[C@@H](C)C=C2C=C[C@H](C)[C@H](CC[C@@H]3C[C@@H](O)CC(=O)O3)[C@H]21 [Zocor, simvastatin]
SMα Actin [1]: 114 ± 19 | effect on TGF-beta levels [2]: no effect | change in lesion development / lesion formation vs untreated mice ([3]; 3 month treatment): −7% | Number of Lesions ([3]; 87 days treatment): 8.1 ± 0.4 | Lesion Area (μm^2 staining) ([3]; 87 days treatment, per mouse, n=10): 25,777 ± 1368 μm^2 | Active + Latent TGF-beta in Vessel Wall [4]: 44 ± 5 | Active TGF-beta in Vessel Wall [4]: 20 ± 3 | Total cholesterol ([5]; serum, 87 days treatment): 224 ± 29 mg/dL | Total triglyceride ([5]; serum, 87 days treatment): 266 ± 14 mg/dL | HDL-cholesterol [5, 7]: 35 mg/dL | LDL-cholesterol [5, 7]: 54 mg/dL | VLDL-cholesterol [5, 7]: 158 mg/dL | change in LDL-cholesterol vs control mice ([5]; three months): −41% | change in VLDL-cholesterol vs control mice ([5]; three months): −14% | change in total plasma cholesterol vs control mice ([5]; three months): −27% | reduction in total plasma triglyceride concentration ([5]; three months): −12% | Osteopontin [6]: 73 ± 8
